According to patent US20230331685A1, “HERBICIDAL COMPOUNDS AND METHODS OF USE THEREOF” (AG Plenus Ltd, priority 2020, published 2023):

Columns and labels:
Format in all cases: in vivo
[1] = tested on: Conyza canadensis; assay: LTP post-emergence greenhouse test; conditions: Dosage 2000 g/ha
[2] = tested on: Digitaria sanguinalis; assay: LTP post-emergence greenhouse test; conditions: Dosage 2000 g/ha
[3] = tested on: Ambrosia artemisiifolia; assay: LTP post-emergence greenhouse test; conditions: Dosage 2000 g/ha
[4] = tested on: Lolium perenne; assay: LTP post-emergence greenhouse test; conditions: Dosage 2000 g/ha
[5] = tested on: Amaranthus tuberculatus; assay: LTP post-emergence greenhouse test; conditions: Dosage 2000 g/ha
Experimental: A basic panel of eight weed species (Table 3) sowed in 4×4×7 cm plastic pots containing a garden mix (klasmann). Each specie was sowed in a separate pot. In each pot, 10-15 seeds were sowed according to the specie viability. Timing of application determined at a 1-2 true leaf stage. The plants grew for 30 days in a controlled greenhouse (26±2° C. day, 20±2° C. night). Hood irrigation (tap water+Shefer 5:3:8 8 mM) was given at a 50% water content by weight. Two days before application, the tested plants thinned down to three plants per pot. Compounds were soluble in water (DDW), and commercial herbicide control was soluble in formulation B (Table 4). Before application, 1% (v/v) crop oil and 0.02% (v/v) surfactant (Tergitol™ 15-S-7) were added to the solution. […] Plants were evaluated at 3 time points (4, 8, 12 days after application (DAA)). At each time point, visual phenotyping was recorded using a scale of 0-6 (0: no visible effect, 6: maximum effect). […]
Post-emergence advanced wide panel experiment included 24 weed species (Table 5). […] Visual phenotyping was recorded at 4, 11, 17 and 20 DAA using a scale of 0-6 (0: no visible effect, 6: maximum effect). […] Statistical analysis for visual phenotyping determined by a median value of ≥3.5 and Fisher test (pval≤0.05). Statistical analysis for dry weight determined by % inhibition ≥50 and T test (pval≤0.05), as well as Wilcox test (pval≤0.05).

[6] = tested on: Stellaria media; assay: LTP post-emergence greenhouse test; conditions: Dosage 2000 g/ha
[7] = tested on: Abutilon theophrasti; assay: LTP post-emergence greenhouse test; conditions: Dosage 2000 g/ha
[8] = tested on: Lolium multiflorum; assay: LTP post-emergence greenhouse test; conditions: Dosage 2000 g/ha
[9] = tested on: Matricaria chamomilla; assay: LTP post-emergence greenhouse test; conditions: Dosage 2000 g/ha
[10] = tested on: Setaria viridis; assay: LTP post-emergence greenhouse test; conditions: Dosage 2000 g/ha
[11] = tested on: Phalaris minor; assay: LTP post-emergence greenhouse test; conditions: Dosage 2000 g/ha
[12] = tested on: Poa annua; assay: LTP post-emergence greenhouse test; conditions: Dosage 2000 g/ha
[13] = tested on: Amaranthus palmeri; assay: LTP post-emergence greenhouse test; conditions: Dosage 2000 g/ha
[14] = tested on: Alopecurus myosuroides; assay: LTP post-emergence greenhouse test; conditions: Dosage 2000 g/ha
[15] = tested on: Echinochloa crus-galli; assay: LTP post-emergence greenhouse test; conditions: Dosage 2000 g/ha
[16] = tested on: Solanum nigrum; assay: LTP post-emergence greenhouse test; conditions: Dosage 2000 g/ha
[17] = tested on: Echinochloa colon; assay: LTP post-emergence greenhouse test; conditions: Dosage 2000 g/ha
[18] = tested on: Galium aparine; assay: LTP post-emergence greenhouse test; conditions: Dosage 2000 g/ha
[19] = tested on: Chenopodium album; assay: LTP post-emergence greenhouse test; conditions: Dosage 2000 g/ha
[20] = tested on: Arabidopsis thaliana; assay: HTPS post-emergence application on miniature dicot model plant; conditions: Arabidopsis thaliana, post-emergence, green area (RGB), read-out: Max Inhibition (%)
Experimental: (§1) The plates were placed in a controlled greenhouse in a random order inside a bath which allows flooding irrigation with tap water supplemented with a fertilizer. Applied compounds were dissolved into a final solution of 50% acetone, 49.9% DDW, 0.1% tween-20. A 96 well plate was used as a stock plate for preparing application solutions for 8 repeats. Each row contained different concentrations per chemical. Maximal concentration for application was 1.5 Kg/Ha and dilution factor is 2.5. Chemical application was performed one day after thinning out in a chemical hood. […] applied on first two true leaves in each well using 12 channel pipettes. Data collection: RGB (red, green, blue) data for green area per well was documented using camera. Data is collected at a few time points during the experiment: one day after thinning and before chemical application, two-, six- or nine-days post application. During the last two documentations, visual phenotyping was performed. Data analysis: Given RGB results and visual phenotype scores, a student t-test conducted to compare between treatment and control performance for continuous data (RGB) and Fisher exact test to analyze the non-continuous data (phenotypic scores). Dose-Response curves are generated for each treatment to infer ED50 and max. inhibition parameters, using treatment's log concentration range as the […] variable and normalized green area. Plate imaging performed at 11 and 18 DAA. RGB data for green area per well was documented and used to extract % inhibition. Dose-Response curves were built for each treatment to infer EC50, EC75 and EC90 parameters, using treatment's log concentration range as the independent variable and normalized green area as the dependent variable. Treatments were compared to controls performance given RGB results and using student's t-test (p-val≤0.05). Compounds 104-154 were applied in either or both pre- and post-emergence mode to either or both monocot and dicot model plants, following the methods described above. The compounds were applied as a gradient of concentrations as listed above, from which the ED50 was calculated.

[21] = tested on: monocot and eudicot weeds species; assay: In-planta LTP weed panel, overall assessment; conditions: applied post-emergence; both monocot and dicot species
[22] = tested on: Eragrostis teff; assay: HTPS pre-emergence application on monocot model plant
Experimental: as §1, with “area. […]” for “area.”

NC1CCCC(CCCC(=O)O)C1 (centres unmarked) [Compound 145]
Herbicidal activity (In-planta), LTP-Post emergence, Conyza canadensis [1]: 40-60
Herbicidal activity (In-planta), LTP-Post emergence, Digitaria sanguinalis [2]: 60-80
Herbicidal activity (In-planta), LTP-Post emergence, Ambrosia artemisiifolia [3]: 20-40
Herbicidal activity (In-planta), LTP-Post emergence, Lolium perenne [4]: 40-60
Herbicidal activity (In-planta), LTP-Post emergence, Amaranthus tuberculatus [5]: 40-60
Herbicidal activity (In-planta), LTP-Post emergence, Stellaria media [6]: 20-40
Herbicidal activity (In-planta), LTP-Post emergence, Abutilon theophrasti [7]: 20-40
Herbicidal activity (In-planta), LTP-Post emergence, Lolium multiflorum [8]: 20-40
Herbicidal activity (In-planta), LTP-Post emergence, Matricaria chamomilla [9]: 0
Herbicidal activity (In-planta), LTP-Post emergence, Setaria viridis [10]: 60
Herbicidal activity (In-planta), LTP-Post emergence, Phalaris minor [11]: 0
Herbicidal activity (In-planta), LTP-Post emergence, Poa annua [12]: 20-40
Herbicidal activity (In-planta), LTP-Post emergence, Amaranthus palmeri [13]: 20-40
Herbicidal activity (In-planta), LTP-Post emergence, Alopecurus myosuroides [14]: 60-80
Herbicidal activity (In-planta), LTP-Post emergence, Echinochloa crus-galli [15]: 60-80
Herbicidal activity (In-planta), LTP-Post emergence, Solanum nigrum [16]: 40-60
Herbicidal activity (In-planta), LTP-Post emergence, Echinochloa colon [17]: 20-40
Herbicidal activity (In-planta), LTP-Post emergence, Galium aparine [18]: 40-60
Herbicidal activity (In-planta), LTP-Post emergence, Chenopodium album [19]: 40-60
Emax [20]: 100%
activity (in words) [21]: good to moderate activity
ED50 (g/ha) ([22]; dose-response of normalized green area): 16.8 g/ha
Max Inhibition (%) ([22]; green area (RGB)): 100%
